The values below come from patent publication US8673548B2, “Genes and polypeptides relating to breast cancers” (Oncotherapy Science, Inc., priority 2006, dated 2014).

Holding throughout (assay type): cell-based, human
The subject of one data set is CDK1. Kind of data set: immunoblotting of G2/M-arrested cells incubated with CDK1 inhibitor. The settings on record: T47D. The procedure:
To detect expression of PBK/TOPK (WT, T9A, KD, T9A/KD), p47, p97 or PP1α proteins, immunoblottings were performed according to previous report (Park et al., 2006). Briefly, cells were lysed in lysis buffer (50 mM Tris-HCl, pH 8.0/150 mM NaCl/0.5% NP-40) followed by homogenization and incubation on ice for 30 minutes, only soluble fractions were separated from cell debris by centrifugation. After SDS-PAGE (sodium dodecyl sulfate polyacrylamide gel electrophoresis), the proteins were blotted onto nitrocellulose membrane (GE Healthcare, Buckinghamshire, United Kingdom), incubated with the corresponding antibodies, and visualized using an ECL detection kit (GE Healthcare). To collect the mitotic cells, the present inventors employed a “mitotic shake-off” method as described previously (Dechat T et al., EMBO J. 17: 4887-902 (1998)). A protein-protein interaction was examined by immunoprecipitation after co-transfection with above described constructs of interest to COS-7 cells using the FuGene6 reagent (Roche) as described previously (Shimo A et al., Cancer Sci 98: 174-81 (2007)) except using an anti-6×His antibody (Santa Cruz Biotechnology) to precipitated p97/VCP-myc-6×His protein. After washing 5 times with lysis buffer, immunocomplexes were loaded on a SDS-PAGE gel and immunoblotted as described above.
An active recombinant PBK/TOPK protein was purchased from Invitrogen (Carlsbad, Calif.), and recombinant proteins of Histone H3 and Protein Phosohatase 1-alpha (PP1α were from Upstate Biotechnology (Lake Placidy, N.Y.). Cyclin-dependent kinase-1 (CDK1 kinase) (cdc2/cyclin B1) and lambda protein phosphatase (λPPase) were from New England Biolabs (Ipswich, Mass.). The glutathione S-transferase (GST)-tagged PBK/TOPK (GST-PBK/TOPK) protein was expressed in Escherichia coli and purified with Glutathione Sepharose 4B beads (GE Heath care, Buckinghamshire, United Kingdom) according to the previous report (Lin et al., 2007). […]

The subject of data set [1] is PBK/TOPK. Briefly: western blot of PBK/TOPK phosphorylation after okadaic acid. Conditions: T47D. On the procedure: Wild-type and kinase-dead PBK/TOPK proteins were exogenously expressed by transfection into T47D cell using pCAGGS-nHA expression vector. Whole cell lysates were harvested 48 h after the transfection. The cells were lysed in the cell lysis buffer as described above. The following procedures are the same as described above except that anti-HA rat high-affinity antibody (Roche) was used for the antibody reaction. […] The following procedures were also carried out as described above. Phosphorylated protein was confirmed by treatment with 1 U of lambda protein phosphatase (New England Biolabs, Ipswich, Mass.) at 30° C. for 2 h.

The subject of data set [2] is PBK/TOPK. Kind of data set: western blot of PBK/TOPK after nocodazole. Conditions: T47D; 6 to 18 h.
The test system of a further data set is T47D cells. Kind of data set: FACS cell cycle analysis after nocodazole. On the procedure:
For PBK/TOPK, the cell cycle of cultured T47D breast cancer cells were synchronized via the treatment with aphidicolin (Sigma-Aldrich) for 16 h, washing 5 times with PBS (−), and addition of fresh culture media to release from cell-cycle arrest. For 15 h (every 3 h) after releasing, cells were collected and fixed with 70% ethanol, and then kept at 4° C. before use. Cells were incubated with 10 mg/mL RNaseI in PBS (−) at 37° C. for 30 min and stained with 50 μg of propidium iodide at room temperature for 30 min. Cell suspensions at each time point were analyzed with FACscan (Becton Dickinson, Franklin Lakes, N.J.).
To collect the G2/M arrested cells, 0.3 μg/mL of nocodazole (Sigma-Aldrich) was treated to culture media for the last 16 hours before collection.

A further data set relates to A7322. Briefly: semi-quantitative RT-PCR of A7322 after siRNA vector transfection. The settings on record: BT-549 and BT-474 cells; compared with psiU6BX-Mock. The procedure:
Inventors established a vector-based RNAi (RNA interference) expression system using psiU6BX3.0 siRNA expression vector as described previously (Taniuchi K et al. Cancer Res., 65:105-112. 2005.). siRNA expression vectors against A7322 (psiU6BX3.0-A7322), F3374V1 (psiU6BX3.0-F3374V1), EGFP (psiU6BX3.0-EGFP), Scramble (psiU6BX3.0-SCR) and Mock (psiU6BX3.0-Mock) were prepared by cloning of double-stranded oligonucleotides into the BbsI site of the psiU6BX3.0 vector. The target sequences of synthetic oligonucleotides for siRNA were as follows;
(§1) Human breast cancer cells-lines, BT-549 and BT-474 (for A7322) and T47D and HBC4 (for F3374), were plated onto 10-cm dishes (2×10^6 cells/dish) and transfected with 8 μg each of psiU6BX3.0-Mock (without insertion), psiU6BX3.0-A7322 (#2, #3 and a mismatch construct (m#3) including three-base substitutions in #3), psiU6BX3.0-F3374V1 (#1, and #4), psiU6BX3.0-EGFP, psiU6BX3.0-SCR using FuGENE6 reagent (Roche) as described above. Inventors selected the psiU6BX3.0-introduced BT-549, BT-474, T47D and HBC4, with medium containing 0.2 mg/ml or 1 mg/ml of neomycin (Geneticin, Gibco BRL, Carlsbad, Calif.), respectively. […] To evaluate an effect of siRNAs, total RNAs were extracted from the cells at 4-day incubation with neomycin, and then the knockdown effect of siRNAs was examined by a semi-quantitative RT-PCR using specific primer sets;

The test system of the next data set is BT-549 and BT-474 cells. Kind of data set: colony-formation and MTT assays, A7322 siRNA. The procedure: as §1
Transfectants expressing siRNA were grown for 4 weeks in selective media containing neomycin, then fixed with 4% paraformaldehyde for 15 min before staining with Giemsa's solution (Merck, Whitehouse Station, N.J.) to assess colony number. To quantify cell viability, MTT assays were performed with cell counting kit-8 4 days after transfection according to manufacturer's recommendation (Wako, Osaka, Japan). Absorbance at 570 nm wavelength was measured with a Microplate Reader 550 (Bio-Rad). […]

For another data set, the system named is F3374 protein. Kind of data set: western blot of F3374 protein after siAURKB. The settings on record: T47D cells; vs siEGFP. On the procedure:
To detect the endogenous F3374 and AURKB proteins in breast cancer cell lines (HBC4, BT-549, HBC5, HBL100, HCC1937, MCF-7, MDA-MB-231, MDA-MB-453, SKBR3, and T47D, and ZR75-1) and human mammary gland epithelial cell (HMEC), cells were lysed in lysis buffer (50 mM Tris-HCl, pH 8.0/150 mM NaCl/0.5% NP-40) including 0.1% protease inhibitor cocktail III (Calbiochem, San Diego, Calif.). The amount of total protein was estimated by protein assay kit (Bio-Rad, Hercules, Calif.), and then proteins were mixed with SDS-sample buffer and boiled before loading at 10% SDS-PAGE gel. After electrophoresis, the proteins were blotted onto nitrocellulose membrane (GE Healthcare). After blocking with blocking solution (4% BlockAce; Dainippon Pharmaceutical. Co., Ltd, Osaka, Japan), membranes blotting proteins were incubated with anti-F3374 polyclonal antibody at 1:100 dilutions or anti-AURKB rabbit polyclonal antibody (abcam, Cambridge, UK) at 1:100 dilutions for detection of endogenous F3374 or AURKB protein. Finally the membrane was incubated with HRP conjugated-secondary antibody and protein-bands were visualized by ECL detection reagents (GE Healthcare). Beta-actin was examined to serve as a loading control. […]

Another data set deals with F3374. Kind of data set: western blot of F3374 after siF3374 oligonucleotide. Conditions: HBC4 cells. An excerpt: (§2) Furthermore, the present inventors used siRNA oligonucleotides (Sigma Aldrich Japan KK, Tokyo, Japan) due to its high transfection efficiency to further verify the knockdown effects of F3374 and AURKB on cell morphology. The sequences targeting each gene were as follows:
(§3) T47D or HBC4 cells (2.5×10^5 cells in 10 cm dish for FACS analysis) cells were transfected with those siRNAs using Lipofectamin RNAiMAX (Invitrogen) in Optimem (Invitrogen) medium according to the instructions of manufacture. Forty-eight hours after transfection, morphological changes of the HBC4 cells were examined by microscopy and by immunocytochemical staining analysis using Alexa Fluor 594 Phalloidin (Molecular Probe).

A further data set deals with HBC4 cells. Kind of data set: microscopy of morphological changes after siF3374. Conditions: vs siEGFP.
Excerpt: as §2, §3

For the compound `CCn1cnc2c(Nc3cccc(Cl)c3)nc(N[C@@H]3CCCC[C@@H]3N)nc21` [CDK1 inhibitor, CGP74514A], in the data set with CDK1 (0 to 4 hours), the “phosphorylation level of the Rb protein at Ser807 and 811” value is given as “decreased phosphorylation level”; the “phosphorylation of PP1α at Thr320” value is listed as “reduced phosphorylation”. Also, the “phosphorylation of PBK/TOPK induced by G2/M arrest” value with CDK1 (0 to 4 hours after nocodazole 16 hours) is “diminished in time-dependent manner”.
Turning to `C=C1[C@@H](O)[C@@H]2O[C@]3(CC[C@H](/C=C/[C@@H](C)[C@@H]4CC(C)=C[C@@]5(O[C@H](C[C@@](C)(O)C(=O)O)CC[C@H]5O)O4)O3)CC[C@H]2O[C@@H]1[C@@H](O)C[C@H](C)[C@H]1O[C@@]2(CCCCO2)CC[C@H]1C` [OA, okadaic acid], the “phosphorylation of PBK/TOPK” value in the data set on PBK/TOPK [1] (100 nM for 9 hours) is reported as “induced”; in the data set with PBK/TOPK [1] (low concentration (less than 100 nM)), “not”.
In the case of `COC(=O)Nc1nc2ccc(C(=O)c3cccs3)cc2[nH]1` [nocodazole], in the data set on PBK/TOPK [2], the “intensity of high-molecular (phosphorylated) band of endogenous PBK/TOPK” value is “elevated in a time-dependent manner”. Also, the “proportion of cells at the G2/M phase” value in the data set with T47D cells (6 to 18 h) is recorded as “elevated”. In addition, the “cells synchronized at G2/M phase” value in the data set with T47D cells (treatment for 16 hours) is 61-70%.
Turning to “m#3: mismatch siRNA with 3-bp replacement in A7322 si-#3, 5′-AATATTCGATCTCTGCCACAC-3′ (SEQ ID NO: 36) (listed as DNA, chemistry not given here)”, in the data set with A7322, the “expression level of A7322” value is “no suppressive effect”. For the same compound, the “growth of BT-549 and BT-474 cells” value in the data set on BT-549 and BT-474 cells is “no suppressive effect”.
With “siAURKB: siRNA oligonucleotide 5′-AAGGUGAUGGAGAAUAGCAGU-3′ (SEQ ID NO: 66) targeting AURKB (listed as RNA, chemistry not given here)”, in the data set with F3374 protein, the “phosphorylated F3374 protein” value is recorded as “significant decrease” and the “total F3374 protein” value is “significant decrease”.
As for “siF3374: siRNA oligonucleotide 5′-ACUCCUACGUUCUCUAUUA-3′ (SEQ ID NO: 65) targeting F3374 (listed as RNA, chemistry not given here)”, the “knockdown effect at the protein level (F3374)” value in the data set with F3374 is “significant knockdown effect”. In the data set with HBC4 cells, the “morphological alterations: cell size” value is given as “enlargement of the size of the cells” and the “morphological alterations: cytokinesis” value is recorded as “appearance of the intercellular bridges between two separating-cells”.
